# Test results from the RepoRT retention time repository.
# Structures can show the parent of a compound that is named as a salt.
# Experiment: RP, Waters ACQUITY Premier BEH C18, 100 × 2.1 mm, 1.7 µm, 40 °C, 0.3 to 0.4 mL/min, estimated dead time 0.73 min; A: water + 0.1% formic acid; B: acetonitrile + 0.1% formic acid; gradient (min/%B) 0/0.5 0.1/0.5 10/80 10.1/99.5 12/0.5 12.1/0.5 14.5/0.5
# Settings: stereoisomer not certain
row,SMILES,LC retention time [min]
1,COC(=O)c1ccc(O)cc1 [METHYLPARABEN],5.79
2,CC(CC(=O)O)C(=O)O (centres undefined) [METHYLSUCCINIC ACID],3.75
3,CC1(O)CCOC(=O)C1 (centres undefined) [MEVALOLACTONE],3.33
4,CC(O)(CCO)CC(=O)O (centres undefined) [MEVALONATE],2.75
5,COC(=O)CCCC(=O)O [MONOMETHYLGLUTARATE],3.95
6,O=c1c(O)c(-c2ccc(O)cc2O)oc2cc(O)cc(O)c12 [MORIN],5.82
7,CC1OC(Oc2c(-c3cc(O)c(O)c(O)c3)oc3cc(O)cc(O)c3c2=O)C(O)C(O)C1O (centres undefined) [MYRICITRIN],4.4
8,Cn1cc(C(N)=O)ccc1=O [N1-METHYL-2-PYRIDONE-5-CARBOXAMIDE],1.12
9,CC(C)=CCNc1ncnc2nc[nH]c12 [N6-(DELTA2-ISOPENTENYL)-ADENINE],4.63
10,CC(=O)NCCC(=O)O [N-ACETYL-BETA-ALANINE],1.03
11,CC(=O)NC(C)C(=O)O (centres undefined) [N-ACETYLALANINE],2.4
12,CC(=O)NC(CC(N)=O)C(=O)O (centres undefined) [N-ACETYLASPARAGINE],1.1
13,CC(=O)NC(CC(=O)O)C(=O)O (centres undefined) [N-ACETYLASPARTATE],1.41
14,CC(=O)NC(CS)C(=O)O (centres undefined) [N-ACETYLCYSTEINE],4
15,CC(=O)NC(CCC(=O)O)C(=O)O (centres undefined) [N-ACETYLGLUTAMATE],2.2
16,CC(=O)NCC(=O)O [N-ACETYLGLYCINE],1.26
17,CC(=O)NCCc1cnc[nH]1 [N-ACETYLHISTAMINE],0.998
18,CC(=O)NC(CC(C)C)C(=O)O (centres undefined) [N-ACETYLLEUCINE],4.88
19,CSCCC(NC(C)=O)C(=O)O (centres undefined) [N-ACETYLMETHIONINE],4.21
20,CC(=O)NC1C(O)OC(CO)C(O)C1OC(C)C(=O)O (centres undefined) [N-ACETYLMURAMATE],1.09
21,CC(=O)NC1C(O)CC(O)(C(=O)O)OC1C(O)C(O)CO (centres undefined) [N-ACETYLNEURAMINATE],0.9
22,CC(=O)NC(Cc1ccccc1)C(=O)O (centres undefined) [N-ACETYLPHENYLALANINE],5.18
23,CC(=O)N1CCCC1C(=O)O (centres undefined) [N-ACETYLPROLINE],3.77
24,CC(=O)NCCCCN [N-ACETYLPUTRESCINE],0.96
25,CC(=O)NC(CO)C(=O)O (centres undefined) [N-ACETYLSERINE],1.12
26,CC(=O)NCCc1c[nH]c2ccc(O)cc12 [N-ACETYLSEROTONIN],4.42
27,CC(=O)NC(Cc1c[nH]c2ccccc12)C(=O)O (centres undefined) [N-ACETYLTRYPTOPHAN],5.31
28,CCNC(=O)C1CC(C)CCC1C(C)C (centres undefined) [N-ETHYL-5-METHYL-2-(1-METHYLETHYL)-CYCLOHEXANECARBOXAMIDE],7.41

row,SMILES,LC retention time [min]
1,CSCC[C@H](NC=O)C(=O)O [N-FORMYL-L-METHIONINE],4.06
2,O=CNCC(=O)O [N-FORMYLGLYCINE],0.962
3,O=CNC(Cc1ccccc1)C(=O)O (centres undefined) [N-FORMYLPHENYLALANINE],4.77
4,CNC(=O)c1cccnc1 [N-METHYLNICOTINAMIDE],1.05
5,CNCCc1c[nH]c2ccccc12 [N-METHYLTRYPTAMINE],4.45
6,CC1OC(OC2C(Oc3cc(O)c4c(c3)OC(c3ccc(O)cc3)CC4=O)OC(CO)C(O)C2O)C(O)C(O)C1O (centres undefined) [NARINGIN],4.7
7,CC1OC(OCC2OC(Oc3cc(O)c4c(c3)OC(c3ccc(O)cc3)CC4=O)C(O)C(O)C2O)C(O)C(O)C1O (centres undefined) [NARIRUTIN],4.59
8,NC(=O)c1ccc[n+](C2OC(COP(=O)(O)OP(=O)(O)OCC3OC(n4cnc5c(=O)[nH]cnc54)C(O)C3O)C(O)C2O)c1 (centres undefined) [NICOTINAMIDE HYPOXANTHINE DINUCLEOTIDE],2.02
9,NC(=O)c1ccc[n+](C2OC(COP(=O)([O-])O)C(O)C2O)c1 (centres undefined) [NICOTINAMIDE MONONUCLEOTIDE],0.959
10,O=C(O)c1cccnc1 [NICOTINATE],1.42
11,COc1ccc(-c2cc(=O)c3c(OC)c(OC)c(OC)c(OC)c3o2)cc1OC [NOBILETIN],6.99
12,CC(=O)OC1CC(=O)OC(C)(C)C2CC(=O)C3(C)C(CCC4(C)C(c5ccoc5)OC(=O)C5OC543)C12C (centres undefined) [NOMILIN],7.05
13,NCC(O)c1ccc(O)c(O)c1 (centres undefined) [NORADRENALINE],0.887
14,O=c1c(O)c(-c2ccccc2)oc2cc(O)cc(O)c12 [NORIZALPININ],7.12
15,CCCCC(N)C(=O)O (centres undefined) [NORLEUCINE],2.79
16,CC(CCC(=O)O)C1CCC2C3C(=O)CC4CC(O)CCC4(C)C3CCC12C (centres undefined) [NUTRIACHOLIC ACID],7.25
17,CC(=O)OC(CC(=O)O)C[N+](C)(C)C (centres undefined) [O-ACETYLCARNITINE],1.48
18,NC(CCOC(=O)CCC(=O)O)C(=O)O (centres undefined) [O-SUCCINYL-HOMOSERINE],1.68
19,CCCCCCCCC=CCCCCCCCC(=O)OCC(O)CO (centres undefined) [OLEOYL-GLYCEROL],9.52
20,CC=C1C(OC2OC(CO)C(O)C(O)C2O)OC=C(C(=O)OC)C1CC(=O)OCCc1ccc(O)c(O)c1 (centres undefined) [OLEUROPEIN],5.05
21,O=C(O)CCCCCCCCCCCO [OMEGA-HYDROXYDODECANOATE],6.99
22,CCC(NC(=O)CCC(N)C(=O)O)C(=O)NCC(=O)O (centres undefined) [OPHTHALMATE],2.03
23,O=c1cc(-c2ccc(O)c(O)c2)oc2c(C3OC(CO)C(O)C(O)C3O)c(O)cc(O)c12 (centres undefined) [ORIENTIN],5.18
24,O=C(O)c1cc(=O)[nH]c(=O)[nH]1 [OROTATE],1.19
25,O=C(O)Cc1ccccc1O [ORTHO-HYDROXYPHENYLACETIC ACID],4.97
26,O=C(O)CCCC(=O)C(=O)O [OXOADIPATE],2.2
27,O=C(O)CCC(=O)C(=O)O [OXOGLUTARATE],1.3

# More lines, now with the values ahead:
row,LC retention time [min],SMILES
1,4.57,Cc1ccc(OS(=O)(=O)O)cc1 [P-CRESOL SULFATE]
2,2.48,O=C(O)C(O)c1ccc(O)cc1 (centres undefined) [P-HYDROXYMANDELIC ACID]
3,8.15,CCCCCCC=CCCCCCCCC(=O)O [PALMITOLEIC ACID]
4,8.84,CCCCCCCCCCCCCCCC(=O)NCCO [PALMITOYLETHANOLAMIDE]
5,3.72,CC(C)(CO)C(O)C(=O)NCCC(=O)O (centres undefined) [PANTOTHENATE]
6,3.95,Cn1c(=O)[nH]c2ncn(C)c2c1=O [PARAXANTHINE]
7,10,CCCCCCCCCCCC=CCCCCC(=O)O [PETROSELINATE]
8,1.17,O=S(=O)(O)Oc1ccccc1 [PHENOL SULFATE]
9,3.9,NC(=O)CCC(NC(=O)Cc1ccccc1)C(=O)O (centres undefined) [PHENYLACETYLGLUTAMINE]
10,4.21,O=C(O)CNC(=O)Cc1ccccc1 [PHENYLACETYLGLYCINE]
11,5.53,O=C(O)C(=O)c1ccccc1 [PHENYLGLYOXYLIC ACID]
12,4.84,O=C(O)CNC(=O)CCc1ccccc1 [PHENYLPROPIONYLGLYCINE]
13,5.38,O=C(O)C(=O)Cc1ccccc1 [PHENYLPYRUVATE]
14,6.03,O=C(CCc1ccc(O)cc1)c1c(O)cc(O)cc1O [PHLORETIN]
15,5.01,O=C(CCc1ccc(O)cc1)c1c(O)cc(O)cc1OC1OC(CO)C(O)C(O)C1O (centres undefined) [PHLORIDZIN]
16,0.959,O=C(O)CP(=O)(O)O [PHOSPHONOACETATE]
17,4.52,O=C(O)c1ccccc1C(=O)O [PHTHALIC ACID]
18,1.33,O=C(O)C1CCCCN1 (centres undefined) [PIPECOLATE]
19,7.22,O=C(C=CC=Cc1ccc2c(c1)OCO2)N1CCCCC1 [PIPERINE]
20,3.51,NCc1[nH]cc(CCC(=O)O)c1CC(=O)O [PORPHOBILINOGEN]

row,LC retention time [min],SMILES
1,7.26,CC(=O)C1CCC2C3CC=C4CC(OS(=O)(=O)O)CCC4(C)C3CCC12C (centres undefined) [PREGNENOLONE SULFATE]
2,0.916,O=C(O)C1CCCN1 (centres undefined) [PROLINE]
3,0.894,CCC(=O)OC(CC(=O)[O-])C[N+](C)(C)C (centres undefined) [PROPIONYLCARNITINE]
4,6.78,CCCOC(=O)c1ccc(O)cc1 [PROPYLPARABEN]
5,9.14,C=Cc1c(C)c2cc3[nH]c(cc4nc(cc5nc(cc1[nH]2)C(C)=C5CCC(=O)O)C(CCC(=O)O)=C4C)c(C)c3C=C [PROTOPORPHYRIN]
6,2.44,Nc1nc2nccnc2c(=O)[nH]1 [PTERIN]
7,3.76,O=c1c(-c2ccc(O)cc2)coc2c(C3OC(CO)C(O)C(O)C3O)c(O)ccc12 (centres undefined) [PUERARIN]
8,2.2,c1ncc2[nH]cnc2n1 [PURINE]
9,0.923,Cc1ncc(CO)c(C=O)c1O [PYRIDOXAL]
10,2.1,Cc1ncc(CO)c(CO)c1O [PYRIDOXINE]
11,3.85,Oc1ccccc1O [PYROCATECHOL]
12,2.89,Oc1cccc(O)c1O [PYROGALLOL]
13,4.38,O=C(O)c1ccc[nH]1 [PYRROLE-2-CARBOXYLATE]
14,4.41,O=c1c(OC2OC(CO)C(O)C(O)C2O)c(-c2ccc(O)c(O)c2)oc2cc(O)cc(O)c12 (centres undefined) [QUERCETIN 3-GALACTOSIDE]
15,4.41,O=C(O)C1OC(Oc2c(-c3ccc(O)c(O)c3)oc3cc(O)cc(O)c3c2=O)C(O)C(O)C1O (centres undefined) [QUERCETIN 3-O-GLUCURONIDE]
16,5.6,O=c1c(O)c(-c2ccc(O)c(O)c2)oc2cc(O)cc(O)c12 [QUERCETIN]
17,4.68,CC1OC(Oc2c(-c3ccc(O)c(O)c3)oc3cc(O)cc(O)c3c2=O)C(O)C(O)C1O (centres undefined) [QUERCITRIN]
18,0.92,O=C(O)C1(O)CC(O)C(O)C(O)C1 (centres undefined) [QUINATE]
19,3.88,C=CC1CN2CCC1CC2C(O)c1ccnc2ccc(OC)cc12 (centres undefined) [QUININE]
